Measured values: patent US20250230193A1, “CYCLIC COMPOUND HAVING SELECTIVE KRAS INHIBITORY EFFECT ON HRAS AND NRAS” (CHUGAI SEIYAKU KABUSHIKI KAISHA, priority 2022, published 2025)
Where a SMILES comes first, the peptide text is derived from it. Bridges are numbered along the chain shown (N, C = ends). [ ]: non-standard residue; d: D form. The star is where a group is joined. hPhe(3-Cl-4-CF3) = N[C@@H](CCc1ccc(C(F)(F)F)c(Cl)c1)C(=O)O; NMePhe(4-CF3) = CN[C@@H](Cc1ccc(C(F)(F)F)cc1)C(=O)O; NMeGly(cPent) = CN[C@H](C(=O)O)C1CCCC1; NMeD = CN[C@@H](CC(=O)O)C(=O)O; NMeL = CN[C@@H](CC(C)C)C(=O)O; Morpholide = C1CN(*)CCO1; Ac5c = NC1(C(=O)O)CCCC1; Sar = CNCC(=O)O

How the values were obtained:
[1] = target: GDP-bound NRAS wild-type protein (Homo sapiens, UniProt P01111); assay: Binding to NRAS by surface plasmon resonance (SPR), Single Cycle Kinetics; conditions: for NRAS/KRAS (ratio of KD value for GDP-bound NRAS wild-type protein to KD value for KRAS): KD ratio class; for NRAS/KRAS (ratio of KD value with respect to NRAS to KD value with respect to KRAS): GDP-bound NRAS wild-type vs GDP-bound KRAS wild-type
[2] = target: GDP-bound HRAS wild-type protein (Homo sapiens, UniProt P01112); assay: Binding to HRAS by surface plasmon resonance (SPR), Single Cycle Kinetics; conditions: for HRAS/KRAS (ratio of KD value for GDP-bound HRAS wild-type protein to KD value for KRAS): KD ratio class; for HRAS/KRAS (ratio of KD value with respect to HRAS to KD value with respect to KRAS): GDP-bound HRAS wild-type vs GDP-bound KRAS wild-type
[3] = tested on: human lung cancer strain NCI-H441; assay: cells; conditions: NCI-H441, 96 h, read-out: NCI-H441 IC50 (nM)
[4] = KD ratio NRAS/KRAS, class symbols
[5] = KD ratio HRAS/KRAS, class symbols

Chain of GDP-bound HRAS wild-type protein (P01112 whole entry): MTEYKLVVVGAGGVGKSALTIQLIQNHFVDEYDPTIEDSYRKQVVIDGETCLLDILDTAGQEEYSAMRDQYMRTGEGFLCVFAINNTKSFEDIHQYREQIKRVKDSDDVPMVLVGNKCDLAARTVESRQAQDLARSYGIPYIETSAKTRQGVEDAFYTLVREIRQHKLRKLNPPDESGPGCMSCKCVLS
Chain of GDP-bound NRAS wild-type protein (P01111 whole entry): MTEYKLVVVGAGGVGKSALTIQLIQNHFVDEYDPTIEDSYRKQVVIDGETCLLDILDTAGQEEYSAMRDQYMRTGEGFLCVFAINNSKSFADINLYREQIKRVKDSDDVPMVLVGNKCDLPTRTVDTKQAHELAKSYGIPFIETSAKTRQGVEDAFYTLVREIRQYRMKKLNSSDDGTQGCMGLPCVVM

| IC50 [3] | Compound | NRAS/KRAS (ratio of KD value for GDP-bound NRAS wild-type protein to KD value for KRAS) ([1]; SPR) | HRAS/KRAS (ratio of KD value for GDP-bound HRAS wild-type protein to KD value for KRAS) ([2]; SPR) | further results |
| --- | --- | --- | --- | --- |
| 78.6 nM | CCO[C@@H]1C[C@H]2C(=O)NC3(CCC3)C(=O)N(C)[C@@H](C3CCCC3)C(=O)N(C)[C@H](C(C)C)CC(=O)N(C)[C@@H](CC)C(=O)N[C@@H]([C@@H](C)CC)C(=O)N(C)CC(=O)N(C)[C@H]3C/C=C\CCN(C3=O)[C@@H](CC3CCCCC3)C(=O)N(C)CC(=O)N[C@@H](CCc3cc(F)c(C(F)(F)F)c(F)c3)C(=O)N2C1 [PP1601] | B (a compound having 3 or more and less than 10 is denoted as B) | A (a compound having 10 or more and less than 20 is denoted as A) | – |
| 4.6 nM | CCO[C@@H]1C[C@H]2C(=O)NC3(CCCC3)C(=O)N(C)[C@@H](C3CCCC3)C(=O)N(C)[C@H](C(=O)N(C)C)CC(=O)N(C)[C@@H](CC)C(=O)N[C@@H]([C@@H](C)CC)C(=O)N(C)CC(=O)N(C)[C@H]3C[C@@H](C)[C@@H](C)CN(C3=O)[C@@H](Cc3ccc(C(F)(F)F)cc3)C(=O)N(C)CC(=O)N[C@@H](CCc3cc(F)c(C(F)(F)F)c(F)c3)C(=O)N2C1 [PP1352] | A (a compound having 10 or more and less than 20 is denoted as A) | B (a compound having 3 or more and less than 10 is denoted as B) | – |
| 33.4 nM | CCO[C@@H]1C[C@H]2C(=O)NC3(CCC3)C(=O)N(C)[C@@H](C(CC)CC)C(=O)N(C)[C@H](C(=O)N(C)C)CC(=O)N(C)[C@@H](CC)C(=O)N[C@@H]([C@@H](C)CC)C(=O)N(C)CC(=O)N(C)[C@H]3C/C=C\CCN(C3=O)[C@@H](Cc3ccc(C(F)(F)F)cc3)C(=O)N(C)CC(=O)N[C@@H](CCc3ccc(Cl)c(Cl)c3)C(=O)N2C1 [PP1215] | AA (a compound having 20 or more is denoted as AA) | A (a compound having 10 or more and less than 20 is denoted as A) | – |
| 32 nM | CCO[C@@H]1C[C@H]2C(=O)NC3(CCC3)C(=O)N(C)[C@@H](C3CCCC3)C(=O)N(C)[C@H](C(=O)N(C)C)CC(=O)N(C)[C@@H](CC3CC3)C(=O)N[C@@H]([C@@H](C)CC)C(=O)N(C)CC(=O)N(C)[C@H]3C/C=C\CCN(C3=O)[C@@H](CC3CCCCC3)C(=O)N(C)CC(=O)N[C@@H](CCc3cc(F)c(C(F)(F)F)c(F)c3)C(=O)N2C1 [PP1446] | A (a compound having 10 or more and less than 20 is denoted as A) | A (a compound having 10 or more and less than 20 is denoted as A) | – |
| 33.6 nM | CCO[C@@H]1C[C@H]2C(=O)NC3(CCC3)C(=O)N(C)[C@@H](C(CC)CC)C(=O)N(C)[C@H](C(=O)N(C)C)CC(=O)N(C)[C@@H](CC3CCCC3)C(=O)N[C@@H]([C@@H](C)CC)C(=O)N(C)CC(=O)N(C)[C@H]3C/C=C\CCN(C3=O)[C@@H](Cc3ccc(F)cc3)C(=O)N(C)CC(=O)N[C@@H](CCc3cc(F)c(C(F)(F)F)c(F)c3)C(=O)N2C1 [PP1517] | A (a compound having 10 or more and less than 20 is denoted as A) | A (a compound having 10 or more and less than 20 is denoted as A) | – |
| 320 nM | CCO[C@@H]1C[C@H]2C(=O)NC3(CCC3)C(=O)N(C)[C@@H](C(CC)CC)C(=O)N(C)[C@H](C)CC(=O)N(C)[C@@H](CC3CCCC3)C(=O)N[C@@H]([C@@H](C)CC)C(=O)N(C)CC(=O)N(C)[C@H]3C/C=C\CCN(C3=O)[C@@H](Cc3ccc(F)cc3)C(=O)N(C)CC(=O)N[C@@H](CCc3cc(F)c(C(F)(F)F)c(F)c3)C(=O)N2C1 [PP1523] | – | – | – |
| 39.3 nM | CCO[C@@H]1C[C@H]2C(=O)NC3(CCC3)C(=O)N(C)[C@@H](C(CC)CC)C(=O)N3CCC[C@@H]3CC(=O)N(C)[C@@H](CC)C(=O)N[C@@H]([C@@H](C)CC)C(=O)N(C)CC(=O)N(C)[C@H]3C/C=C\CCN(C3=O)[C@@H](Cc3ccc(C(F)(F)F)cc3)C(=O)N(C)CC(=O)N[C@@H](CCc3cc(F)c(C(F)(F)F)c(F)c3)C(=O)N2C1 [PP1607] | – | A (a compound having 10 or more and less than 20 is denoted as A) | – |
| – | CCC[C@H]1C(=O)N[C@@H](C2CCCC2)C(=O)N(C)CC(=O)N(C)[C@H]2C/C=C\CCN(C2=O)[C@@H](Cc2ccc(C)cc2)C(=O)N(C)CC(=O)N[C@@H](CCc2ccc(C(F)(F)F)c(Cl)c2)C(=O)N2C[C@H](OCC)C[C@H]2C(=O)NC2(CC(C)(C)C2)C(=O)N(C)[C@@H](CC(F)(F)F)C(=O)N(C)[C@H](C(=O)N(C)C)CC(=O)N1C [PP2192] | – | – | NRAS/KRAS (ratio of KD value with respect to NRAS to KD value with respect to KRAS) ([1]; SPR): A (a compound having 10 or more and less than 20 is denoted as A); HRAS/KRAS (ratio of KD value with respect to HRAS to KD value with respect to KRAS) ([2]; SPR): A (a compound having 10 or more and less than 20 is denoted as A) |
| – | CCCO[C@@H]1C[C@H]2C(=O)NC3(CC(C)(C)C3)C(=O)N(C)[C@@H](C3CCCC3)C(=O)N(C)[C@H](C(=O)N(C)C)CC(=O)N(C)[C@H]3CCCCc4ccc(cc4)C[C@@H](C(=O)N(C)CC(=O)N[C@@H](CCc4ccc(C(F)(F)F)c(OC)c4)C(=O)N2C1)N1CC/C=C\C[C@@H](C1=O)N(C)C(=O)CN(C1CC1)C(=O)[C@H]([C@@H](C)CC)NC3=O [PP3082] | – | – | NRAS/KRAS (ratio of KD value with respect to GDP-bound NRAS wild-type protein to KD value with respect to KRAS) ([1]; KD ratio NRAS/KRAS, SPR, GDP-bound wild-type proteins): B (a compound having 3 or more and less than 10 is denoted as B); HRAS/KRAS (ratio of KD value with respect to GDP-bound HRAS wild-type protein to KD value with respect to KRAS) ([2]; KD ratio HRAS/KRAS, SPR, GDP-bound wild-type proteins): B (a compound having 3 or more and less than 10 is denoted as B) |
| – | CCOC[C@H]1C(=O)N[C@@H]([C@@H](C)CC)C(=O)N(C)CC(=O)N(C)[C@H]2C/C=C\CCN(C2=O)[C@@H](Cc2ccc(C(F)(F)F)cc2)C(=O)N(C)CC(=O)N[C@@H](CCc2ccc(Cl)c(Cl)c2)C(=O)N2C[C@H](OCC)C[C@H]2C(=O)NC2(CC(C)(C)C2)C(=O)N(C)[C@@H](CC(C)(C)C)C(=O)N(C)[C@H](C(=O)N(C)C)CC(=O)N1C [PP2740] | – | – | NRAS/KRAS (ratio of KD value with respect to GDP-bound NRAS wild-type protein to KD value with respect to KRAS) [1, 4]: AA (a compound having 20 or more is denoted as AA); HRAS/KRAS (ratio of KD value with respect to GDP-bound HRAS wild-type protein to KD value with respect to KRAS) [2, 5]: A (a compound having 10 or more and less than 20 is denoted as A) |
| – | CC[C@H](C)[C@@H]1NC(=O)[C@H](CC(C)C)N(C)C(=O)C[C@@H](C(=O)N2CCOCC2)N(C)C(=O)[C@H](C2CCCC2)N(C)C(=O)C2(CCCC2)NC(=O)[C@@H]2CCCN2C(=O)[C@H](CCc2ccc(C(F)(F)F)c(Cl)c2)NC(=O)CN(C)C(=O)[C@H](Cc2ccc(C(F)(F)F)cc2)N(C)C(=O)CN(C)C(=O)CN(C)C1=O [PP0076] ([NMeL]I[Sar][Sar][NMePhe(4-CF3)][Sar][hPhe(3-Cl-4-CF3)]P[Ac5c][NMeGly(cPent)][NMeD]-Morpholide; lactam N-11) | – | – | NRAS/KRAS (ratio of KD for GDP-bound NRAS wild-type to KD for KRAS) ([1]; KD ratio NRAS/KRAS, SPR): C (A compound having a KD ratio of 0.1 or more and less than 3 is denoted as C); HRAS/KRAS (ratio of KD for GDP-bound HRAS wild-type to KD for KRAS) ([2]; KD ratio HRAS/KRAS, SPR): C (A compound having a KD ratio of 0.1 or more and less than 3 is denoted as C) |
| – | CCO[C@@H]1C[C@H]2C(=O)NC3(CC(C)(C)C3)C(=O)N(C)[C@@H](C(CC)CC)C(=O)N(C)[C@H](C(=O)N(C)C)CC(=O)N(C)[C@@H](CC)C(=O)N[C@@H]([C@@H](C)CC)C(=O)N(C)CC(=O)N(C)[C@H]3C/C=C\CCN(C3=O)[C@@H](Cc3ccc(C(F)(F)F)cc3)C(=O)N(C)CC(=O)N[C@@H](CCc3cc(F)c(C(F)(F)F)c(F)c3)C(=O)N2C1 [PP2062] | – | – | NRAS/KRAS (ratio of KD value with respect to NRAS to KD value with respect to KRAS) ([1]; SPR): AA (a compound having 20 or more is denoted as AA); HRAS/KRAS (ratio of KD value with respect to HRAS to KD value with respect to KRAS) ([2]; SPR): A (a compound having 10 or more and less than 20 is denoted as A) |
| – | CCC[C@H]1C(=O)N[C@@H]([C@@H](C)CC)C(=O)N(C)CC(=O)N(C)[C@H]2C/C=C\CCN(C2=O)[C@@H](Cc2ccc(C)cc2)C(=O)N(C)CC(=O)N[C@@H](CCc2ccc3c(C)cn(C)c3c2)C(=O)N2C[C@H](OCC)C[C@H]2C(=O)NC2(CC(C)(C)C2)C(=O)N(C)[C@@H](C2CCCC2)C(=O)N(C)[C@H](C(=O)N(C)C)CC(=O)N1C [PP2899] | – | – | NRAS/KRAS (ratio of KD value with respect to GDP-bound NRAS wild-type protein to KD value with respect to KRAS) [1, 4]: A (a compound having 10 or more and less than 20 is denoted as A); HRAS/KRAS (ratio of KD value with respect to GDP-bound HRAS wild-type protein to KD value with respect to KRAS) [2, 5]: B (a compound having 3 or more and less than 10 is denoted as B) |
| – | CCC(CC)[C@@H]1NC(=O)[C@H](CC(C)C)N(C)C(=O)C[C@@H](C(=O)N2CCOCC2)N(C)C(=O)[C@H](C2CCCC2)N(C)C(=O)C2(CCCC2)NC(=O)[C@@H]2CCCN2C(=O)[C@H](CCc2cc(F)c(C(F)(F)F)c(F)c2)NC(=O)CN(C)C(=O)[C@H](Cc2ccc(C(F)(F)F)cc2)N2CCCCC[C@@H](C2=O)N(C)C(=O)CN(C)C1=O [PP0523] | – | – | NRAS/KRAS (ratio of KD value with respect to GDP-bound NRAS wild-type protein to KD value with respect to KRAS) ([1]; KD ratio NRAS/KRAS, SPR): A (a compound having 10 or more and less than 20 is denoted as A); HRAS/KRAS (ratio of KD value with respect to GDP-bound HRAS wild-type protein to KD value with respect to KRAS) ([2]; KD ratio HRAS/KRAS, SPR): B (a compound having 3 or more and less than 10 is denoted as B) |
| – | CCCN(C)C(=O)[C@@H]1CC(=O)N(C)[C@@H](CC(F)F)C(=O)N[C@@H]([C@@H](C)CC)C(=O)N(C)CC(=O)N(C)[C@H]2C/C=C\CCN(C2=O)[C@@H](Cc2ccc(C(F)(F)F)cc2)C(=O)N(C)CC(=O)N[C@@H](CCc2cc(F)c(C(F)(F)F)c(F)c2)C(=O)N2C[C@@H](C)C[C@H]2C(=O)NC2(CC(C)(C)C2)C(=O)N(C)[C@@H](C2CCCC2)C(=O)N1C [PP2040] | – | – | NRAS/KRAS (ratio of KD value with respect to NRAS to KD value with respect to KRAS) ([1]; SPR): A (a compound having 10 or more and less than 20 is denoted as A); HRAS/KRAS (ratio of KD value with respect to HRAS to KD value with respect to KRAS) ([2]; SPR): A (a compound having 10 or more and less than 20 is denoted as A) |
